target: T1, GABA A α5 (human receptors of composition α5β3γ2) (Homo sapiens, UniProt P18507+P31644); assay: [3H]flumazenil competition binding, HEK293 cells expressing human GABA A α5β3γ2 receptors; conditions: [3H]-Flumazenil 0.5 nM, means of two determinations, read-out: hKi (GABA Aα5)
T1 construct: expressed in transfected cells; host or cells: HEK293, transiently transfected; membranes prepared from cell pellets
Experimental: The affinity of compounds at GABA A receptor subtypes was measured by competition for [^3H]flumazenil (85 Ci/mmol; Roche) binding to HEK293 cells expressing rat (stably transfected) or human (transiently transfected) receptors of composition α1β3γ2, α2β3γ2, α3β3γ2 and α5β3γ2.
Cell pellets were suspended in Krebs-tris buffer (4.8 mM KCl, 1.2 mM CaCl2, 1.2 mM MgCl2, 120 mM NaCl, 15 mM Tris; pH 7.5; binding assay buffer), homogenized by polytron for ca. 20 sec on ice and centrifuged for 60 min at 4° C. (50000 g; Sorvall, rotor: SM24=20000 rpm). The cell pellets were resuspended in Krebs-tris buffer and homogenized by polytron for ca. 15 sec on ice. Protein was measured (Bradford method, Bio-Rad) and aliquots of 1 mL were prepared and stored at −80° C.
Radioligand binding assays were carried out in a volume of […] (96-well plates) which contained […] of cell membranes, [^3H]-Flumazenil at a concentration of 1 nM for α1, α2, α3 subunits and 0.5 nM for α5 subunits and the test compound in the range of […]. Nonspecific binding was defined by 10^−5 M diazepam and typically represented less than 5% of the total binding. Assays were incubated to equilibrium for 1 hour at 4° C. and harvested onto GF/C uni-filters (Packard) by filtration using a Packard harvester and washing with ice-cold wash buffer (50 mM Tris; pH 7.5). After drying, filter-retained radioactivity was detected by liquid scintillation counting. Ki values were calculated using Excel-Fit (Microsoft) and are the means of two determinations.
Representative test results, obtained by the above described assay measuring binding affinity to HEK293 cells expressing human (h) receptors, are shown in table 1 below.

Compound | Ki [nM]
Cc1onc(-c2ccccc2)c1COc1ccc(C(=O)NN)cn1 [Example 1, 6-((5-Methyl-3-phenyl-isoxazol-4-yl)-methoxy)-nicotinic acid hydrazide] | 5.4
Cc1onc(-c2ccccc2)c1COc1ccc(C(=O)NN2CCOCC2)cn1 [Example 2, 6-((5-Methyl-3-phenyl-isoxazol-4-yl)-methoxy)-N-morpholin-4-yl-nicotinamide] | 0.6
Cc1onc(-c2ccccc2)c1COc1ccc(C(=O)NN2CCCCC2)cn1 [Example 3, 6-((5-Methyl-3-phenyl-isoxazol-4-yl)-methoxy)-N-piperidin-1-yl-nicotinamide] | 4
Cc1onc(-c2ccccc2)c1COc1ccc(C(=O)NN2CCCC2)cn1 [Example 4, 6-((5-Methyl-3-phenyl-isoxazol-4-yl)-methoxy)-N-pyrrolidin-1-yl-nicotinamide] | 2.6
Cc1onc(-c2ccccc2)c1COc1ccc(C(=O)NN2CCS(=O)(=O)CC2)cn1 [Example 5, N-(1,1-Dioxo-1,6-thiomorpholin-4-yl)-6-((5-methyl-3-phenyl-isoxazol-4-yl)-methoxy)-nicotinamide] | 2.6

Other lines, results leading:

Ki [nM] | Compound
4.8 | Cc1onc(-c2ccccc2)c1COc1ccc(C(=O)NNS(C)(=O)=O)cn1 [Example 6, 6-((5-Methyl-3-phenyl-isoxazol-4-yl)-methoxy)-nicotinic acid N′-(methylsulfonyl)-hydrazide]
0.4 | Cc1onc(-c2ccc(F)cn2)c1COc1ccc(C(=O)NN2CCOCC2)cn1 [Example 7, 6-[(3-(5-Fluoro-pyridin-2-yl)-5-methyl-isoxazol-4-yl)-methoxy]-N-morpholin-4-yl-nicotinamide]
6.4 | CCCCc1noc(C)c1COc1ccc(C(=O)NN2CCOCC2)cn1 [Example 8, 6-((3-Butyl-5-methyl-isoxazol-4-yl)-methoxy)-N-morpholin-4-yl-nicotinamide]
19.4 | CCCCc1noc(C)c1COc1ccc(C(=O)NN2CCCC2)cn1 [Example 9, 6-((3-Butyl-5-methyl-isoxazol-4-yl)-methoxy)-N-pyrrolidin-1-yl-nicotinamide]
18.7 | CCCCc1noc(C)c1COc1ccc(C(=O)NN(C)C)cn1 [Example 10, 6-((3-Butyl-5-methyl-isoxazol-4-yl)-methoxy)-nicotinic acid 2,2-dimethyl-hydrazide]
9.5 | Cc1onc(-c2ccccc2)c1COc1ccc(C(=O)NN2CCOCC2)nn1 [Example 11, 6-((5-Methyl-3-phenyl-isoxazol-4-yl)-methoxy)-pyridazine-3-carboxylic acid morpholin-4-ylamide]
